{"source": "patent US20230037538A1", "about": "“ANTI-ALS COMPOUNDS” (Takeda Pharmaceutical Company Limited, priority 2021, published 2023)", "type_in_all_cases": "cell-based, human", "key": {"FTD affected fibroblasts": {"system": "FTD affected fibroblasts", "experiment": "Stress granule assay in FTD affected fibroblasts (TDP-43 / HuR immunostaining after arsenite stress)", "details": "vehicle (DMSO) alone set at 100, lower = fewer TDP-43 aggregates; for activity at 1 µM: Homo sapiens, Fibroblast, 1 μM compound, read-out: Normalized average number of TDP-43 positive HuR aggregates per cell at 1 μM; for Normalized average number of TDP-43 positive HuR aggregates per cell at 1.5 μM: 1.5 μM compound", "description": "In this assay, TDP-43 aggregates in stress granules were quantified after 24 hrs of drug treatment followed by 90 minutes of 100 μM arsenite stress.\nOn day 1 20,000 patient derived fibroblasts per well were seeded in a 24 well glass bottom plate or 6000 cells per well in a 96 well plate. On day 2 compounds were added at the desired final concentration in fresh media to the respective wells. On day 3 sodium arsenite was added at a final concentration of 500 μM. Incubated at 37° C. for 60 mins. On day 9 wells were washed with PBS and fixed cells using 4% para formaldehyde (in PBS, prepared freshly, methanol free) for 15 mins at room temperature. Washed with PBS, blocked and permeabilized cells with 1% BSA+1% saponin (prepared in PBS) for 1 hour. For Immunostaining primary antibodies were made in 1% BSA (in PBS) and incubated overnight at 4° C. Rabbit polyclonal TDP-43 C-terminal antibody (Proteintech 12892-1-AP)-1:350; mouse monoclonal HuR antibody (Santa Cruz sc-5261)-1:500. On the next day, added the following secondary antibodies Alexa 594 anti-rabbit (Thermofisher Scientific) and Alexa 488 anti-mouse (Thermofisher Scientific) (1:500) in 1% BSA (in PBS) and kept in dark for 1-2 hours at room temperature. Washed and added DAPI in PBS for nuclear staining. The images were analyzed by the open source image analysis software CellProfiler 2.1.1 (offered by Broad Institute of Harvard and MIT—www.cellprofiler.org). This software contains various modules which can be used to analyze images in different ways.\nThe lower the number, the fewer the TDP-43 aggregates compared to vehicle (DMSO) alone, which is set at 100."}, "[1]": {"system": "Fibroblast from FTD affected individual", "experiment": "Nucleocytoplasmic assay (NCA) in patient fibroblast, fibroblast from FTD affected individual", "details": "compound at 1 μM; DMSO-treated cell set as 100", "description": "(§1) Skin-derived fibroblasts cells from Amnyotrophic Lateral Sclerosis (ALS) and Frontotemporal Degeneration (FTD) patients or affected individual acquired from the National Institute of Neurological Disorders and Stroke (NINDS #ND32947, ND41006, ND42717) were grown in HyClone DMEM High Glucose (GE Healthcare Life Sciences) supplemented with 15% FBS and 1% NEAA (Non-Essential Amino Acids), at 37° C. in a humidified atmosphere of 5% CO2. On day 1600 cells per well were seeded in a 96 well glass bottom plate or 1200 cells per well in a 24 well glass bottom plate. Incubated for 4 days, at 37° C. in a humidified atmosphere of 5% CO2, allowed cells to grow for 4 days. On day added compounds including vehicle control at the desired final concentration in fresh media to the respective wells, allowed cells to grow for an additional 4 days. On day 9 washed wells with PBS and fixed cells using 4% para formaldehyde (in PBS, prepared freshly, methanol free) for 15 mins at room temperature. Washed with PBS, blocked and permeabilized cells with 1% BSA+1% saponin (prepared in PBS) for 1 hour. For immunostaining the following primary antibodies were added in 1% BSA (in PBS) and incubated overnight at 4° C. Rabbit polyclonal TDP-43 C-terminal antibody (Proteintech 12892-1-AP)-1:350; mouse monoclonal HuR antibody (Santa Cruz sc-5261)-1:500. On the next day, added the following secondary antibodies Alexa 594 anti-rabbit (Thermofisher Scientific) and Alexa 488 anti-mouse (Thermofisher Scientific) (1:500) in 1% BSA (in PBS) and kept it in dark for 1-2 hours at room temperature. Wash and add DAPI in PBS for nuclear staining.\n(§2) The immuno-stained cells were imaged with Nikon Ti inverted fluorescence microscope having CSU-22 spinning disk confocal and EMCCD camera. Plan Apo 20×/0.75 objective and NIS-Elements AR software were used for image acquisition. At least 15 images per well were taken. The exposure times for TDP-43 and HuR remained constant across one experiment. Each image acquired (in .nd format) was exported into three individual channel images (for DAPI, TDP-43, HuR) in .tiff format. The images were analyzed by the open source image analysis software Cell Profiller to calculate the signal intensities of TDP-43 present in the nucleus and cytoplasm in each cell. The DAPI image was used to count the total number of cells. The TDP-43 and HuR images are used to count the number of cells containing TDP-43 and/or HuR nuclear staining.\n(§3) The nucleus/cytoplasm ratio of intensities of TDP-43 in each compound-treated (at 1 μM) cells comparing to DMSO-treated cell (which is set as 100) were shown."}, "Mutant VCP fibroblast": {"system": "Mutant VCP fibroblast", "experiment": "Nucleocytoplasmic assay (NCA) in patient fibroblast, mutant VCP fibroblast", "details": "compound at 1 μM; DMSO-treated cell set as 100", "description": "as §1, §2, §3"}, "Mutant TDP-43 fibroblast": {"system": "Mutant TDP-43 fibroblast", "experiment": "Nucleocytoplasmic assay (NCA) in patient fibroblast, mutant TDP-43 fibroblast", "details": "compound at 1 μM; DMSO-treated cell set as 100", "description": "as §1, §2, §3"}}}
{"smiles": "COc1cc2c(cc1OCc1ccccc1)CCNC2/C=C/c1cnc2ncccn12", "note": "(centres unmarked) [AA, (E)-6-(benzyloxy)-1-(2-(imidazo[1,2-a]pyrimidin-3-yl)vinyl)-7-methoxy-1,2,3,4-tetrahydroisoquinoline]", "values": [{"measurement": "activity at 1 µM", "setting": "FTD affected fibroblasts", "result": 85, "unit": "%"}]}
{"smiles": "COc1cc2c(cc1OCc1ccccc1)CCNC2/C=C/c1cnc2ncc(F)cn12", "note": "(centres unmarked) [AC, (E)-6-(benzyloxy)-1-(2-(6-fluoroimidazo[1,2-a]pyrimidin-3-yl)vinyl)-7-methoxy-1,2,3,4-tetrahydroisoquinoline]", "values": [{"measurement": "activity at 1 µM", "setting": "FTD affected fibroblasts", "result": 85.8, "unit": "%"}]}
{"smiles": "COc1cc2c(cc1OCc1ccccc1)CCNC2/C=C/c1cnc2ncc(C(F)(F)F)cn12", "note": "(centres unmarked) [AD, (E)-6-(benzyloxy)-7-methoxy-1-(2-(6-(trifluoromethyl)imidazo[1,2-a]pyrimidin-3-yl)vinyl)-1,2,3,4-tetrahydroisoquinoline]", "values": [{"measurement": "Normalized average number of TDP-43 positive HuR aggregates per cell at 1.5 μM", "setting": "FTD affected fibroblasts", "result": 71.00}, {"measurement": "activity at 1 µM", "setting": "FTD affected fibroblasts", "result": 83, "unit": "%"}]}
{"smiles": "COc1cnc2ncc(/C=C/C3NCCc4cc(OCc5ccccc5)c(OC)cc43)n2c1", "note": "(centres unmarked) [AE, (E)-6-(benzyloxy)-7-methoxy-1-(2-(6-methoxyimidazo[1,2-a]pyrimidin-3-yl)vinyl)-1,2,3,4-tetrahydroisoquinoline]", "values": [{"measurement": "Normalized average number of TDP-43 positive HuR aggregates per cell at 1.5 μM", "setting": "FTD affected fibroblasts", "result": 73.75}]}
{"smiles": "COc1cc2c(cc1OCc1ccccc1)CCNC2/C=C/c1cnc2ncc(C)cn12", "note": "(centres unmarked) [AF, (E)-6-(benzyloxy)-7-methoxy-1-(2-(6-methylimidazo[1,2-a]pyrimidin-3-yl)vinyl)-1,2,3,4-tetrahydroisoquinoline]", "values": [{"measurement": "Normalized average number of TDP-43 positive HuR aggregates per cell at 1.5 μM", "setting": "FTD affected fibroblasts", "result": 65.5}]}
{"smiles": "CCOC(=O)c1cnc2ncc(/C=C/C3NCCc4cc(OCc5ccccc5)c(OC)cc43)n2c1", "note": "(centres unmarked) [AG, Ethyl (E)-3-(2-(6-(benzyloxy)-7-methoxy-1,2,3,4-tetrahydroisoquinolin-1-yl)vinyl)imidazo[1,2-a]pyrimidine-6-carboxylate]", "values": [{"measurement": "activity at 1 µM", "setting": "FTD affected fibroblasts", "result": 87, "unit": "%"}]}
{"smiles": "COc1cc2c(cc1OCc1ccccc1)CCNC2/C=C/c1cnc2ncc(C(=O)O)cn12.Cl", "note": "(centres unmarked) [AH, (E)-3-(2-(6-(benzyloxy)-7-methoxy-1,2,3,4-tetrahydroisoquinolin-1-yl)vinyl)imidazo[1,2-a]pyrimidine-6-carboxylic acid]", "values": [{"measurement": "Normalized average number of TDP-43 positive HuR aggregates per cell at 1.5 μM", "setting": "FTD affected fibroblasts", "result": 71.4}]}
{"smiles": "COc1cc(C)c(/C=C/C2NCCc3cc(OCc4ccccc4)c(OC)cc32)cc1OC", "note": "(centres unmarked) [Example 1, 6-(benzyloxy)-1-[(E)-2-(4,5-dimethoxy-2-methylphenyl)ethenyl]-7-methoxy-1,2,3,4-tetrahydroisoquinoline]", "values": [{"measurement": "nucleus/cytoplasm ratio of intensities of TDP-43, Fibroblast from FTD affected individual", "setting": "[1]", "result": 148}, {"measurement": "activity at 1 µM", "setting": "FTD affected fibroblasts", "result": 67, "unit": "%"}, {"measurement": "nucleus/cytoplasm ratio of intensities of TDP-43, Mutant VCP fibroblast", "setting": "Mutant VCP fibroblast", "result": 153}, {"measurement": "nucleus/cytoplasm ratio of intensities of TDP-43, Mutant TDP-43 fibroblast", "setting": "Mutant TDP-43 fibroblast", "result": 147}]}
{"smiles": "COc1cc2c(cc1OCc1ccccc1)CCNC2/C=C/c1cc2c(cc1C)OCCO2", "note": "(centres unmarked) [Example 4, 6-(benzyloxy)-7-methoxy-1-[(E)-2-(7-methyl-2,3-dihydro-1,4-benzodioxin-6-yl)ethenyl]-1,2,3,4-tetrahydroisoquinoline]", "values": [{"measurement": "activity at 1 µM", "setting": "FTD affected fibroblasts", "result": 70.9, "unit": "%"}, {"measurement": "nucleus/cytoplasm ratio of intensities of TDP-43, Mutant TDP-43 fibroblast", "setting": "Mutant TDP-43 fibroblast", "result": 130}]}
{"smiles": "COc1cc2c(cc1OCc1ccccc1)CCNC2/C=C/c1cc2c(cc1C)OCO2", "note": "(centres unmarked) [Example 5, 6-(benzyloxy)-7-methoxy-1-[(E)-2-(6-methyl-2H-1,3-benzodioxol-5-yl)ethenyl]-1,2,3,4-tetrahydroisoquinoline]", "values": [{"measurement": "nucleus/cytoplasm ratio of intensities of TDP-43, Fibroblast from FTD affected individual", "setting": "[1]", "result": 139}, {"measurement": "activity at 1 µM", "setting": "FTD affected fibroblasts", "result": 83.3, "unit": "%"}, {"measurement": "nucleus/cytoplasm ratio of intensities of TDP-43, Mutant VCP fibroblast", "setting": "Mutant VCP fibroblast", "result": 179}, {"measurement": "nucleus/cytoplasm ratio of intensities of TDP-43, Mutant TDP-43 fibroblast", "setting": "Mutant TDP-43 fibroblast", "result": 137}]}
{"smiles": "COc1cnc2c(c1)c(/C=C/C1NCCc3cc(OCc4ccccc4)c(OC)cc31)cn2C", "note": "(centres unmarked) [Example 7, 6-(benzyloxy)-7-methoxy-1-[(E)-2-(5-methoxy-1-methyl-1H-pyrrolo[2,3-b]pyridin-3-yl)ethenyl]-1,2,3,4-tetrahydroisoquinoline]", "values": [{"measurement": "nucleus/cytoplasm ratio of intensities of TDP-43, Fibroblast from FTD affected individual", "setting": "[1]", "result": 175}, {"measurement": "activity at 1 µM", "setting": "FTD affected fibroblasts", "result": 40, "unit": "%"}, {"measurement": "nucleus/cytoplasm ratio of intensities of TDP-43, Mutant VCP fibroblast", "setting": "Mutant VCP fibroblast", "result": 191}, {"measurement": "nucleus/cytoplasm ratio of intensities of TDP-43, Mutant TDP-43 fibroblast", "setting": "Mutant TDP-43 fibroblast", "result": 143}]}
{"smiles": "COc1cc2c(cc1OCc1ccccc1)CCNC2/C=C/c1ccc(-c2cncnc2)cc1Cl", "note": "(centres unmarked) [Example 9, 6-(benzyloxy)-1-{(E)-2-[2-chloro-4-(pyrimidin-5-yl)phenyl]ethenyl}-7-methoxy-1,2,3,4-tetrahydroisoquinoline]", "values": [{"measurement": "nucleus/cytoplasm ratio of intensities of TDP-43, Mutant VCP fibroblast", "setting": "Mutant VCP fibroblast", "result": 200}]}
{"smiles": "COc1cc2c(cc1OCc1ccccc1)CCNC2/C=C/c1cn(C)c2nccc(OC)c12", "note": "(centres unmarked) [Example 26, 6-(benzyloxy)-7-methoxy-1-[(E)-2-(4-methoxy-1-methyl-1H-pyrrolo[2,3-b]pyridin-3-yl)ethenyl]-1,2,3,4-tetrahydroisoquinoline]", "values": [{"measurement": "nucleus/cytoplasm ratio of intensities of TDP-43, Fibroblast from FTD affected individual", "setting": "[1]", "result": 146}, {"measurement": "activity at 1 µM", "setting": "FTD affected fibroblasts", "result": 59, "unit": "%"}, {"measurement": "nucleus/cytoplasm ratio of intensities of TDP-43, Mutant VCP fibroblast", "setting": "Mutant VCP fibroblast", "result": 256}]}
